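Five concentrations, 48 hours, 96-well plates. GI50 marks 50% less growth.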 Active and inactive are the calls of the source. No stated cut-off is given here; in the data, active = GI50 up to about 1.1 µM and inactive = higher.
Assays:
Test in all cases: inhibition of tumour cell growth, NCI panel, 48 h
[1] = system: NCI-H226
[2] = system: 786-0
[3] = system: CAKI-1
[4] = system: SF-539
[5] = system: MOLT-4
[6] = system: UACC-62
[7] = system: OVCAR-8
[8] = system: HCC 2998
[9] = system: LOX IMVI
[10] = system: CCRF-CEM
[11] = system: HOP-62
[12] = system: PC-3
[13] = system: SK-MEL-5
[14] = system: M14
[15] = system: COLO 205
[16] = system: NCI-H23
[17] = system: K562
[18] = system: IGROV-1
[19] = system: UO-31

| Structure (SMILES) | GI50 [1] | GI50 [2] | GI50 [3] | GI50 [4] | GI50 [5] | GI50 [6] | GI50 [7] | GI50 [8] | GI50 [9] | GI50 [10] | GI50 [11] | GI50 [12] | GI50 [13] | GI50 [14] | GI50 [15] | GI50 [16] | GI50 [17] | GI50 [18] | GI50 [19] |
| --- | --- | --- | --- | --- | --- | --- | --- | --- | --- | --- | --- | --- | --- | --- | --- | --- | --- | --- | --- |
| COc1cc2c(cc1OC)C(=O)N(c1ccc(O)cc1)C2 | > 100 µM (inactive) | > 100 µM (inactive) | > 100 µM (inactive) | > 100 µM (inactive) | > 100 µM (inactive) | > 100 µM (inactive) | > 100 µM (inactive) | > 100 µM (inactive) | > 100 µM (inactive) | > 100 µM (inactive) | > 100 µM (inactive) | > 100 µM (inactive) | > 100 µM (inactive) | > 100 µM (inactive) | > 100 µM (inactive) | > 100 µM (inactive) | > 100 µM (inactive) | > 100 µM (inactive) |  |
| c1cncc(CC2(c3cc4ccccc4[nH]3)OCCO2)c1 | > 100 µM (inactive) | > 100 µM (inactive) | > 100 µM (inactive) | 58.3 µM (inactive) |  | > 100 µM (inactive) | > 100 µM (inactive) | > 100 µM (inactive) | > 100 µM (inactive) | > 100 µM (inactive) |  | > 100 µM (inactive) | 61.8 µM (inactive) |  | > 100 µM (inactive) | > 100 µM (inactive) |  | 22.1 µM (inactive) | 40.6 µM (inactive) |
| O=C(NNC(=S)NC1CCCCC1)c1csc(NC(=S)NC2CCCCC2)n1 | 66.7 µM (inactive) | 7.64 µM (inactive) | 7.23 µM (inactive) | 4.58 µM (inactive) | 3.42 µM (inactive) | 4.45 µM (inactive) | 2.25 µM (inactive) | 3.12 µM (inactive) | 4.9 µM (inactive) | 5.73 µM (inactive) | 12.4 µM (inactive) | 10.9 µM (inactive) | 2.01 µM (inactive) | 3.46 µM (inactive) | 3.22 µM (inactive) | 10.4 µM (inactive) |  | 3.52 µM (inactive) | 0.948 µM (active) |
| C[N+](C)(CCNc1ccc(NCC[N+](C)(C)Cc2ccc([N+](=O)[O-])cc2)c2c1C(=O)c1c(O)ccc(O)c1C2=O)Cc1ccc([N+](=O)[O-])cc1 |  | 8.41 µM (inactive) | > 50 µM (inactive) | 19.1 µM (inactive) | > 5 µM (inactive) | > 50 µM (inactive) | > 50 µM (inactive) | > 50 µM (inactive) | 4.65 µM (inactive) | > 50 µM (inactive) | > 50 µM (inactive) | 37.8 µM (inactive) | 15 µM (inactive) | > 50 µM (inactive) | 18.7 µM (inactive) | > 50 µM (inactive) | > 5 µM (inactive) | > 50 µM (inactive) | 20.4 µM (inactive) |
| O=C(O)[C@@H]1CSCN1C(=O)[C@@H]1CCC(=S)N1 | > 100 µM (inactive) | > 100 µM (inactive) | > 100 µM (inactive) | > 100 µM (inactive) | > 100 µM (inactive) | > 10 µM (inactive) | > 100 µM (inactive) | > 100 µM (inactive) | > 100 µM (inactive) | > 100 µM (inactive) | > 100 µM (inactive) | > 100 µM (inactive) | > 100 µM (inactive) | > 100 µM (inactive) |  | > 100 µM (inactive) | > 100 µM (inactive) | > 100 µM (inactive) | > 100 µM (inactive) |
| Cc1cc(-c2ccccc2)nc2oc(=O)n(C)c12 | > 100 µM (inactive) | 37.8 µM (inactive) | 49.1 µM (inactive) |  | > 100 µM (inactive) | > 100 µM (inactive) | 90.4 µM (inactive) | > 100 µM (inactive) | > 100 µM (inactive) | > 100 µM (inactive) | > 100 µM (inactive) | > 100 µM (inactive) | > 100 µM (inactive) | > 100 µM (inactive) | > 100 µM (inactive) | 83.9 µM (inactive) | > 100 µM (inactive) | 53.3 µM (inactive) | > 100 µM (inactive) |
| O=C(/C=C/c1cccc(Br)c1)c1cccs1 | 17.9 µM (inactive) | 15.8 µM (inactive) | 16.1 µM (inactive) | 18 µM (inactive) | 15.3 µM (inactive) | 16.2 µM (inactive) | 17.7 µM (inactive) | 23 µM (inactive) |  | 4.23 µM (inactive) | 26 µM (inactive) | 17.5 µM (inactive) | 16.9 µM (inactive) | 25.1 µM (inactive) | 21 µM (inactive) | 19.5 µM (inactive) | 3.13 µM (inactive) | 17.1 µM (inactive) | 13 µM (inactive) |
| O=C(Nc1cccc(F)c1)c1cc2ccc(O)cc2o/c1=N\c1ccccc1F |  | 4.99 µM (inactive) | 4.39 µM (inactive) | 7.43 µM (inactive) | 2.29 µM (inactive) | 4.38 µM (inactive) | 2.51 µM (inactive) | 9.59 µM (inactive) | 2.96 µM (inactive) | 2.47 µM (inactive) | 8.89 µM (inactive) | 8.85 µM (inactive) | 2.2 µM (inactive) | 5.32 µM (inactive) | 21.1 µM (inactive) | 2.18 µM (inactive) | 2.01 µM (inactive) | 2.96 µM (inactive) | 4 µM (inactive) |
